One assay has as its target T1, AIK (Homo sapiens, UniProt O14965).
T1 sequence (O14965 1-403): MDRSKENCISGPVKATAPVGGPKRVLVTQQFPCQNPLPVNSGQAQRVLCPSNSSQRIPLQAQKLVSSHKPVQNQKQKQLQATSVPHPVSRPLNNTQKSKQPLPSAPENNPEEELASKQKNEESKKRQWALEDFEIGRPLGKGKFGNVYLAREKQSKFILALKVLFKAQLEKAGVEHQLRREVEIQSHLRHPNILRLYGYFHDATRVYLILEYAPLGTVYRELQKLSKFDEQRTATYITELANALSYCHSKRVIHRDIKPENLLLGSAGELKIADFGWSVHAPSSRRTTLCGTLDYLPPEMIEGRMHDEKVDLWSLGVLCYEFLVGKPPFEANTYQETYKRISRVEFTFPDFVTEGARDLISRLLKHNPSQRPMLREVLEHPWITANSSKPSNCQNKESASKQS
Briefly: Inhibition of AIK, Direct Fluorescence Polarization (IMAP). Type of assay: biochemical. The following applies: FP assay, 2.5 uM ATP, 2.5 nM AIK. As for the experimental part: The inhibitory properties of compounds relative to AIK may be determined by the Direct Fluorescence Polarization detection method (FP) using a Greiner small volume black 384-well-plate format under the following reaction conditions: 50 mM Hepes pH 7.3, 10 mM MgCl2, 10 mM NaCl, 1 mM DTT, 0.01% Brij35, 100 nM Fluorescein-LRRASLG peptide (provided by SYNPEP), 5% DMSO, 2.5 uM ATP. Detection of the reaction product is performed by addition of IMAP binding reagent (Molecular Devices). Reaction product may be determined quantitatively by FP using an Analyst HT plate reader (Molecular Devices) with an excitation wavelength at 485 nm and emission at 530 nm and using a Fluorescein 505 dichroic mirror.
The assay reaction may be initiated as follows: 2 ul of (3×) 300 nM Fl-Peptide/7.5 uM ATP was added to each well of the plate, followed by the addition of 2 ul of (3×) inhibitor (2.5 fold serial dilutions for 11 data points for each inhibitor) containing 15% DMSO. 2 ul of (3×) 7.5 nM AIK solution may be added to initiate the reaction (final enzyme concentration was 2.5 nM for AIK). […] Fluorescence polarization readings of the resulting reaction mixtures may be measured after a 60-minute incubation at room temperature.
IC50 values may be calculated by non-linear curve fitting of the compound concentrations and fluorescent polarization values to the standard IC50 equation.

A further assay concerns the target c-KIT (Homo sapiens, UniProt P10721). Briefly: Inhibition of c-KIT, TR-FRET. Type of assay: biochemical. Conditions: TR-FRET assay, 100 uM ATP, 0.13 nM c-Kit. For orientation: In TR-FRET formats the signal depends on donor and acceptor labels being close together.

Structures are written as SMILES. Where only a bound is given, the exact number is not on record here.

c-KIT, sequence (P10721 26-976): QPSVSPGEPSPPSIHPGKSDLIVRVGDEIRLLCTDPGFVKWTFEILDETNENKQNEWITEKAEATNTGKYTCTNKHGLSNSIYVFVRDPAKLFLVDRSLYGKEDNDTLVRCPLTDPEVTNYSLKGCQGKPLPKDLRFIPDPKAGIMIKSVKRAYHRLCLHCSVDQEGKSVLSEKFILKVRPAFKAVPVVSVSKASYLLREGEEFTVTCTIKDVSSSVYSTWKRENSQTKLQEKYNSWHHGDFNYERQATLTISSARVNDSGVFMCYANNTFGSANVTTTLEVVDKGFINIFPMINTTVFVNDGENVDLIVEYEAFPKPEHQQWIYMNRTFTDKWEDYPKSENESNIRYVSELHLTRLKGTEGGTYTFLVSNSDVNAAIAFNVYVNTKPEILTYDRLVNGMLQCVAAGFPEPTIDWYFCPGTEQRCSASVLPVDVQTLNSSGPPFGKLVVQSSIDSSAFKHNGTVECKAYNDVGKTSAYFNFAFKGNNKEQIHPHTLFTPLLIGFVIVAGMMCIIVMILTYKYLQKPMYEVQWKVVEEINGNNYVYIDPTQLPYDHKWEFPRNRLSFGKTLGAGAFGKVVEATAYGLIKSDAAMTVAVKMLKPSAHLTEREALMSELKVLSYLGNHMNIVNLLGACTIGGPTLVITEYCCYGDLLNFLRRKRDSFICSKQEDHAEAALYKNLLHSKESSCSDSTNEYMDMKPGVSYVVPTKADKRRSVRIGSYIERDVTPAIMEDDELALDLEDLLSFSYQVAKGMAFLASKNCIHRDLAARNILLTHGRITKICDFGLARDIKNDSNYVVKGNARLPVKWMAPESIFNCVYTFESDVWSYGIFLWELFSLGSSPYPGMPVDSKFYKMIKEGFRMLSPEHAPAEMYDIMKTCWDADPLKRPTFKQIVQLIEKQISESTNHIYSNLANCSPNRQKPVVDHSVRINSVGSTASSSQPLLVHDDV

For the molecule `Cc1cc(-c2c(O)[nH]c3ccccc23)nc(N)n1` [Example 1, 3-(2-Amino-6-methyl-pyrimidin-4-yl)-1H-indol-2-ol], the IC50 against AIK and at c-KIT was under 100 µM each time.

Values taken from patent US20080153869A1, “Kinase Inhibitors” (priority 2004, published 2008).
